# Assay results published in US12162890B2 (Novartis AG, priority 2015, dated 2024).
# Target: HEK293 cells with stable expression of the GRIN1 gene and tetracycline-inducible expression of the GRIN2B gene (NMDA receptor, NR2B) (Homo sapiens, UniProt Q13224)
# Assay: Fluo-8 Ca2+ flux assay: reversal of Ro 25-6981-mediated suppression of the Ca2+ response to co-agonist (glutamate/glycine); further: test concentration or dose not given here
# Assay type: cell-based
# Settings: reversal of the Ro 25-6981 suppression of the Ca2+ response to co-agonist (glutamate/glycine)
# Chain of HEK293 cells with stable expression of the GRIN1 gene and tetracycline-inducible expression of the GRIN2B gene (NMDA receptor, NR2B) (Q13224 27-1484, other chains not shown): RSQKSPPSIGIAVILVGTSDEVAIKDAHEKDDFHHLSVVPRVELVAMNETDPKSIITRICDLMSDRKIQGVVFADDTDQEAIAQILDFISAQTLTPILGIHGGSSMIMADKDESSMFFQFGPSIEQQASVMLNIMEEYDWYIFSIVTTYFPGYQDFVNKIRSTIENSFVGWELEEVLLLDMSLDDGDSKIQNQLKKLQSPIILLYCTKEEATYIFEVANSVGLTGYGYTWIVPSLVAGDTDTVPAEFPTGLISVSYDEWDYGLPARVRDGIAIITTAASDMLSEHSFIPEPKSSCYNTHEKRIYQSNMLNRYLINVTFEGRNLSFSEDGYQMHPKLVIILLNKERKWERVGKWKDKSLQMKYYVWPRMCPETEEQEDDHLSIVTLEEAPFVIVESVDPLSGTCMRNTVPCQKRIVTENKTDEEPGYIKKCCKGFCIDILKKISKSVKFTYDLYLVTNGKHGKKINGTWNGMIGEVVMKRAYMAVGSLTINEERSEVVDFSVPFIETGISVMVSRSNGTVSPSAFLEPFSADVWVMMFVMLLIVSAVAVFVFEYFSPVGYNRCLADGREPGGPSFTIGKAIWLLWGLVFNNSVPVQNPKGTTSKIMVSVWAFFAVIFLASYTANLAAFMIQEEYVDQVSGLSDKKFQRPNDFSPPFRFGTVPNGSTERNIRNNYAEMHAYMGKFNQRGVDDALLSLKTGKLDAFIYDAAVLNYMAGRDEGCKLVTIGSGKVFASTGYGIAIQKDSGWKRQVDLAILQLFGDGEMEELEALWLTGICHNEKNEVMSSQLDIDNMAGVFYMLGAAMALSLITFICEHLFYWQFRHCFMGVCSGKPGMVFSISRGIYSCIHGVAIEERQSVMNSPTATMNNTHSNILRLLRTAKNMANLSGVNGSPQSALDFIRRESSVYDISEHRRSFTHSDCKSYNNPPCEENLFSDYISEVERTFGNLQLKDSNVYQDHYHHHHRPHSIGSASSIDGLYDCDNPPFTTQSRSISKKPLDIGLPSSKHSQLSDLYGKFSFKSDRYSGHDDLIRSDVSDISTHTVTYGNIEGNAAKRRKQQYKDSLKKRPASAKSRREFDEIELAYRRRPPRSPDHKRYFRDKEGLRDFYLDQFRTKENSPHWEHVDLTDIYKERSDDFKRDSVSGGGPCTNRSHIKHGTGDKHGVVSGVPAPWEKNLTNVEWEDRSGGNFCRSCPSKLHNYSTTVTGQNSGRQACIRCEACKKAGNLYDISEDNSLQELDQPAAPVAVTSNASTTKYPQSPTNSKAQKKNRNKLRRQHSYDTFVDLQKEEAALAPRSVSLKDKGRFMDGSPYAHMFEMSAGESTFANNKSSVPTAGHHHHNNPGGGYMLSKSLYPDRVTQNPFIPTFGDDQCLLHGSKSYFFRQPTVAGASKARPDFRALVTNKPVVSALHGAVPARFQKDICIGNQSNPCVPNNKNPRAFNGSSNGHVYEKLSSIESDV
row,SMILES,Response Recovered (%)
1,"O=C(Cn1ccc2scc(-c3ccc(Cl)c(Cl)c3)c2c1=O)N1CC[C@H](F)C1 [Example 30, (S)-3-(3,4-dichlorophenyl)-5-(2-(3-fluoropyrrolidin-1-yl)-2-oxoethyl)thieno[3,2-c]pyridin-4(5H)-one]",96
2,"CC1CN(C(=O)Cn2ccc3scc(-c4ccc(Cl)c(Cl)c4)c3c2=O)C1 [Example 59, 3-(3,4-dichlorophenyl)-5-(2-(3-methylazetidin-1-yl)-2-oxoethyl)thieno[3,2-c]pyridin-4(5H)-one]",110
3,"Cc1cn(CC(=O)N2CCCC2)c(=O)c2c(-c3ccc(Cl)c(C(F)(F)F)c3)csc12 [Example 106, 3-(4-chloro-3-(trifluoromethyl)phenyl)-7-methyl-5-(2-oxo-2-(pyrrolidin-1-yl)ethyl)thieno[3,2-c]pyridin-4(5H)-one]",76
4,"O=C(Cn1ccc2scc(-c3ccc(Cl)s3)c2c1=O)N1CCC(F)C1 (centres unmarked) [Example 31, 3-(5-chlorothiophen-2-yl)-5-(2-(3-fluoropyrrolidin-1-yl)-2-oxoethyl)thieno[3,2-c]pyridin-4(5H)-one]",34
5,"O=C(Cn1ccc2scc(-c3ccc(F)c(C(F)(F)F)c3)c2c1=O)N1CCC(F)C1 (centres unmarked) [Example 11, 3-(4-fluoro-3-(trifluoromethyl)phenyl)-5-(2-(3-fluoropyrrolidin-1-yl)-2-oxoethyl)thieno[3,2-c]pyridin-4(5H)-one]",99
6,"O=C(Cn1ccc2scc(-c3ccc(Cl)c(C(F)(F)F)c3)c2c1=O)N1C[C@@H](F)[C@@H](F)C1 [Example 14, 3-(4-chloro-3-(trifluoromethyl)phenyl)-5-(2-((3S,4R)-3,4-difluoropyrrolidin-1-yl)-2-oxoethyl)thieno[3,2-c]pyridin-4(5H)-one]",99
7,"O=C(Cn1ccc2scc(-c3ccc(Cl)c(C(F)(F)F)c3)c2c1=O)N1CC[C@H](F)C1 [Example 15, (S)-3-(4-chloro-3-(trifluoromethyl)phenyl)-5-(2-(3-fluoropyrrolidin-1-yl)-2-oxoethyl)thieno[3,2-c]pyridin-4(5H)-one]",95
8,"O=C(Cn1cc(CN2CC(F)C2)c2scc(-c3ccc(F)c(Cl)c3)c2c1=O)N1CCC(F)C1 (centres unmarked) [Example 125, 3-(3-chloro-4-fluorophenyl)-7-((3-fluoroazetidin-1-yl)methyl)-5-(2-(3-fluoropyrrolidin-1-yl)-2-oxoethyl)thieno[3,2-c]pyridin-4(5H)-one]",53
9,"O=C(Cn1cnc2cccc(-c3ccc(Cl)cc3)c2c1=O)N1CC(F)(F)C1 [Example 296, 5-(4-chlorophenyl)-3-(2-(3,3-difluoroazetidin-1-yl)-2-oxoethyl)quinazolin-4(3H)-one]",9
10,"O=C(Cn1ccc2scc(-c3cnc(Cl)c(C(F)(F)F)c3)c2c1=O)N1CC(F)C(F)C1 (centres unmarked) [Example 36, 3-(6-chloro-5-(trifluoromethyl)pyri-din-3-yl)-5-(2-(3,4-difluoropyrrolidin-1-yl)-2-oxoethyl)thieno[3,2-c]pyridin-4(5H)-one]",54
11,"O=C(Cn1ccc2scc(-c3cnc(Cl)nc3)c2c1=O)N1CC(F)(CF)C1 [Example 142, 3-(2-chloropyrimidin-5-yl)-5-(2-(3-fluoro-3-(fluoromethyl)azetidin-1-yl)-2-oxoethyl)thieno[3,2-c]pyridin-4(5H)-one]",−4.2
12,"O=C(Cn1cc(Br)c2scc(-c3ccc(Cl)c(C(F)(F)F)c3)c2c1=O)N1CCCC1 [Example 98, 7-bromo-3-(4-chloro-3-(trifluoromethyl)phenyl)-5-(2-oxo-2-(pyrrolidin-1-yl)ethyl)thieno[3,2-c]pyridin-4(5H)-one]",40
13,"Cc1ncc(-c2csc3ccn(CC(=O)N4CC(F)(CF)C4)c(=O)c23)cc1Cl [Example 92, 3-(5-chloro-6-methylpyridin-3-yl)-5-(2-(3-fluoro-3-(fluoromethyl)azetidin-1-yl)-2-oxoethyl)thieno[3,2-c]pyridin-4(5H)-one]",70

# Next, values leading:
row,Response Recovered (%),SMILES
1,41,"O=C(Cn1ccc2cccc(-c3ccc(F)c(Cl)c3)c2c1=O)N1CC(F)(F)C1 [Example 309, 8-(3-chloro-4-fluorophenyl)-2-(2-(3,3-difluoroazetidin-1-yl)-2-oxoethyl)isoquinolin-1(2H)-one]"
2,29,"O=C(Cn1ccn2ncc(-c3ccc(Cl)c(Cl)c3)c2c1=O)N1CCCC1 [Example 326, 3-(3,4-dichlorophenyl)-5-(2-oxo-2-(pyrrolidin-1-yl)ethyl)pyrazolo[1,5-a]pyrazin-4(5H)-one]"
3,40,"O=C(Cn1ccn2c(C3CC3)nc(-c3ccc(F)c(C(F)(F)F)c3)c2c1=O)N1CCC(F)C1 (centres unmarked) [Example 434, 3-cyclopropyl-1-(4-fluoro-3-(trifluoromethyl)phenyl)-7-(2-(3-fluoropyrrolidin-1-yl)-2-oxoethyl)imidazo[1,5-a]pyrazin-8(7H)-one]"
4,3,"O=C(Cn1ncc2scc(-c3ccc(Cl)c(F)c3)c2c1=O)N1CC(F)(F)C1 [Example 340, 3-(4-chloro-3-fluorophenyl)-5-(2-(3,3-difluoroazetidin-1-yl)-2-oxoethyl)thieno[2,3-d]pyridazin-4(5H)-one]"
5,9,"COCCn1cc(-c2ccc(Cl)c(F)c2)c2c(=O)n(CC(=O)N3CCCC3)cnc21 [Example 187, 5-(4-chloro-3-fluorophenyl)-7-(2-methoxyethyl)-3-(2-oxo-2-(pyrrolidin-1-yl)ethyl)-3H-pyrrolo[2,3-d]pyrimidin-4(7H)-one]"
6,20,"CC(C)(O)Cn1cc(-c2ccc(F)c(C(F)(F)F)c2)c2c(=O)n(CC(=O)N3CCC(F)C3)ccc21 (centres unmarked) [Example 257, 3-(4-fluoro-3-(trifluoromethyl)phenyl)-5-(2-(3-fluoropyrrolidin-1-yl)-2-oxoethyl)-1-(2-hydroxy-2-methylpropyl)-1H-pyrrolo[3,2-c]pyridin-4(5H)-one]"
7,150,"CC1(F)CN(C(=O)Cn2ccc3c(c(-c4ccc(F)c(Cl)c4)cn3CCF)c2=O)C1 [Example 281, 3-(3-chloro-4-fluorophenyl)-5-(2-(3-fluoro-3-methylazetidin-1-yl)-2-oxoethyl)-1-(2-fluoroethyl)-1H-pyrrolo[3,2-c]pyridin-4(5H)-one]"
8,4,"O=C(Cn1cnc2onc(-c3ccc(Cl)cc3)c2c1=O)N1CC(F)(F)C1 [Example 385, 3-(4-chlorophenyl)-5-(2-(3,3-difluoroazetidin-1-yl)-2-oxoethyl)isoxazolo[5,4-d]pyrimidin-4(5H)-one]"
9,13,"O=C(Cn1nnc2scc(-c3ccc(Cl)c(C(F)(F)F)c3)c2c1=O)N1CC(F)(F)C1 [Example 333, 5-(4-chloro-3-(trifluoromethyl)phenyl)-3-(2-(3,3-difluoroazetidin-1-yl)-2-oxoethyl)thieno[2,3-d][1,2,3]triazin-4(3H)-one]"
10,20,"O=C(Cn1nnc2scc(-c3ccc(Cl)c(C(F)(F)F)c3)c2c1=O)N1CCC(F)C1 (centres unmarked) [Example 332, 5-(4-chloro-3-(trifluoromethyl)phenyl)-3-(2-(3-fluoropyrrolidin-1-yl)-2-oxoethyl)thieno[2,3-d][1,2,3]triazin-4(3H)-one]"
11,4,"O=C(Cn1ncc2scc(-c3ccc(Cl)c(F)c3)c2c1=O)N1CCC(F)C1 (centres unmarked) [Example 342, 3-(4-chloro-3-fluorophenyl)-5-(2-(3-fluoropyrrolidin-1-yl)-2-oxoethyl)thieno[2,3-d]pyridazin-4(5H)-one]"
12,72,"Cc1nnc(-n2cc(-c3ccc(F)c(C(F)(F)F)c3)c3c(=O)n(CC(=O)N4CCC(F)C4)ccc32)o1 (centres unmarked) [Example 263, 3-(4-fluoro-3-(trifluoromethyl)phenyl)-5-(2-(3-fluoropyrrolidin-1-yl)-2-oxoethyl)-1-(5-methyl-1,3,4-oxadiazol-2-yl)-1H-pyrrolo[3,2-c]pyridin-4(5H)-one]"
13,60,"O=C(Cn1ccc2cccc(-c3ccc(Cl)c(Cl)c3)c2c1=O)N1CCC(F)C1 (centres unmarked) [Example 304, 8-(3,4-dichlorophenyl)-2-(2-(3-fluoropyrrolidin-1-yl)-2-oxoethyl)isoquinolin-1(2H)-one]"
14,38,"Cc1cn(CC(=O)N2CCC(F)C2)c(=O)c2c(-c3ccc(F)c(C(F)(F)F)c3)cc(Br)n12 (centres unmarked) [Example 412, 6-bromo-8-(4-fluoro-3-(trifluoromethyl)phenyl)-2-(2-(3-fluoropyrrolidin-1-yl)-2-oxoethyl)-4-methylpyrrolo[1,2-a]pyrazin-1(2H)-one]"
15,110,"Cc1cn(CC(=O)N2CC(C)(F)C2)c(=O)c2c(-c3ccc(F)c(Cl)c3)ccn12 [Example 416, 8-(3-chloro-4-fluorophenyl)-2-(2-(3-fluoro-3-methylazetidin-1-yl)-2-oxoethyl)-4-methylpyrrolo[1,2-a]pyrazin-1(2H)-one]"
16,44,"O=C(Cn1ccc2c(c(-c3ccc(F)c(C(F)(F)F)c3)cn2-c2ccnnc2)c1=O)N1CCC(F)C1 (centres unmarked) [Example 262, 3-(4-fluoro-3-(trifluoromethyl)-phenyl)-5-(2-(3-fluoropyrrolidin-1-yl)-2-oxoethyl)-1-(pyridazin-4-yl)-1H-pyrrolo[3,2-c]pyridin-4(5H)-one]"
17,140,"CC1(F)CN(C(=O)Cn2ccn3ccc(-c4ccc(Cl)c(Cl)c4)c3c2=O)C1 [Example 396, 8-(3,4-dichlorophenyl)-2-(2-(3-fluoro-3-methylazetidin-1-yl)-2-oxoethyl)pyrrolo[1,2-a]pyrazin-1(2H)-one]"
18,4,"O=C(Cn1cnc2ccn(-c3ccc(Cl)cc3)c2c1=O)N1CC(F)(F)C1 [Example 374, 5-(4-chlorophenyl)-3-(2-(3,3-difluoroazetidin-1-yl)-2-oxoethyl)-3H-pyrrolo[3,2-d]pyrimidin-4(5H)-one]"
19,130,"O=C(Cn1ccn2ccc(-c3ccc(F)c(C(F)(F)F)c3)c2c1=O)N1CC(F)(CF)C1 [Example 407, 2-(2-(3-fluoro-3-(fluoromethyl)azetidin-1-yl)-2-oxoethyl)-8-(4-fluoro-3-(trifluoromethyl)phenyl)pyrrolo[1,2-a]pyrazin-1(2H)-one]"
